Experiments:
Format in all cases: cell-based, rabbit
[1] = target: T1, α1B channel (voltage-dependent calcium channel α1B with α2δ1 and β1b) (Oryctolagus cuniculus, UniProt Q05152); experiment: two electrode voltage-clamp, Ba2+ current in Xenopus oocytes expressing α1B channel
T1 construct: expressed in transfected cells; host or cells: Xenopus laevis oocytes injected with mRNAs
Description: (§1) Ovary was removed from the abdominal cavity of Xenopus laevis and treated with collagenase to remove follicle covering the oocyte (Kinoshita et al., J. Biol. Chem. 276, 28731-28738 (2001)). A combination of three kinds of mRNAs (16.7 ng each) of voltage-dependent calcium channel subunits α1A, α1B or α1E of rabbit and human α2δ1 and β1b (prepared according to the method described in Kinoshita et al., supra or a similar method) was mixed and injected into the oocyte and this was incubated in modified Birth's saline (88 mM NaCl, 1 mM KCl, 0.41 mM CaCl2, 0.33 mM Ca(NO3)2, 0.82 mM MgSO4, 2.4 mM NaHCO3, 7.5 mM Tris-HCl, 10 U/ml penicillin, 10 μg/ml streptomycin, pH 7.6) at 22° C. for 2 to 4 days.
(§2) The oocyte prepared in the above was placed in a chamber filled with a Ba^2+-containing recording liquid (10 mM Ba(OH)2, 90 mM NaOH, 2 mM KOH, 5 mM Hepes, 0.3 mM niflumic acid, methanesulfonic acid, pH 7.4) and fixed at −80 mV using two glass electrodes. A test pulse (200 ms width) toward 0 mV was applied at 30 second intervals and the whole-cell membrane current was measured. A +100 mV depolarization prepulse (100 ms width) that ends before 40 ms was applied every other pulse to eliminate the effect of G protein βγ subunit that binds with Ca^2+ channel to suppress opening (Kinoshita et al., supra). Based on the Ba^2+ current (IBa) as a Ca^2+ channel current, the leak current was corrected by P/4 protocol. N-(4-Acetyl-1-piperazinyl)-p-fluorobenzamide monohydrate (hereinafter to be also referred to as a test compound) was dissolved in the recording liquid containing Ba^2+ and applied.

[2] = target: T2, α1A channel (voltage-dependent calcium channel α1A with α2δ1 and β1b) (Oryctolagus cuniculus, UniProt P27884); experiment: two electrode voltage-clamp, Ba2+ current in Xenopus oocytes expressing α1A channel; conditions: 100 nM test compound; 0 mV, 200 ms test pulse; Xenopus oocyte
T2 construct: expressed in transfected cells; host or cells: Xenopus laevis oocytes injected with mRNAs
Description: as §1
as §2, with “Based on the Ba^2+ current (IBa) as a Ca^2+ channel current, the leak current was corrected by P/4 protocol. N-(4-Acetyl-1-piperazinyl)-p-fluorobenzamide monohydrate (hereinafter to be also referred to as a test compound) was dissolved in the recording liquid containing Ba^2+ and applied.” left out

[3] = target: T3, α1E channel (voltage-dependent calcium channel α1E with α2δ1 and β1b) (Oryctolagus cuniculus, UniProt Q02343); experiment: two electrode voltage-clamp, Ba2+ current in Xenopus oocytes expressing α1E channel; conditions: 100 nM test compound; 0 mV, 200 ms test pulse; Xenopus oocyte
T3 construct: expressed in transfected cells; host or cells: Xenopus laevis oocytes injected with mRNAs
Description: as §1
as §2, with “Based on the Ba^2+ current (IBa) as a Ca^2+ channel current, the leak current was corrected by P/4 protocol. N-(4-Acetyl-1-piperazinyl)-p-fluorobenzamide monohydrate (hereinafter to be also referred to as a test compound) was dissolved in the recording liquid containing Ba^2+ and applied.” left out

T1 sequence (Q05152 whole entry): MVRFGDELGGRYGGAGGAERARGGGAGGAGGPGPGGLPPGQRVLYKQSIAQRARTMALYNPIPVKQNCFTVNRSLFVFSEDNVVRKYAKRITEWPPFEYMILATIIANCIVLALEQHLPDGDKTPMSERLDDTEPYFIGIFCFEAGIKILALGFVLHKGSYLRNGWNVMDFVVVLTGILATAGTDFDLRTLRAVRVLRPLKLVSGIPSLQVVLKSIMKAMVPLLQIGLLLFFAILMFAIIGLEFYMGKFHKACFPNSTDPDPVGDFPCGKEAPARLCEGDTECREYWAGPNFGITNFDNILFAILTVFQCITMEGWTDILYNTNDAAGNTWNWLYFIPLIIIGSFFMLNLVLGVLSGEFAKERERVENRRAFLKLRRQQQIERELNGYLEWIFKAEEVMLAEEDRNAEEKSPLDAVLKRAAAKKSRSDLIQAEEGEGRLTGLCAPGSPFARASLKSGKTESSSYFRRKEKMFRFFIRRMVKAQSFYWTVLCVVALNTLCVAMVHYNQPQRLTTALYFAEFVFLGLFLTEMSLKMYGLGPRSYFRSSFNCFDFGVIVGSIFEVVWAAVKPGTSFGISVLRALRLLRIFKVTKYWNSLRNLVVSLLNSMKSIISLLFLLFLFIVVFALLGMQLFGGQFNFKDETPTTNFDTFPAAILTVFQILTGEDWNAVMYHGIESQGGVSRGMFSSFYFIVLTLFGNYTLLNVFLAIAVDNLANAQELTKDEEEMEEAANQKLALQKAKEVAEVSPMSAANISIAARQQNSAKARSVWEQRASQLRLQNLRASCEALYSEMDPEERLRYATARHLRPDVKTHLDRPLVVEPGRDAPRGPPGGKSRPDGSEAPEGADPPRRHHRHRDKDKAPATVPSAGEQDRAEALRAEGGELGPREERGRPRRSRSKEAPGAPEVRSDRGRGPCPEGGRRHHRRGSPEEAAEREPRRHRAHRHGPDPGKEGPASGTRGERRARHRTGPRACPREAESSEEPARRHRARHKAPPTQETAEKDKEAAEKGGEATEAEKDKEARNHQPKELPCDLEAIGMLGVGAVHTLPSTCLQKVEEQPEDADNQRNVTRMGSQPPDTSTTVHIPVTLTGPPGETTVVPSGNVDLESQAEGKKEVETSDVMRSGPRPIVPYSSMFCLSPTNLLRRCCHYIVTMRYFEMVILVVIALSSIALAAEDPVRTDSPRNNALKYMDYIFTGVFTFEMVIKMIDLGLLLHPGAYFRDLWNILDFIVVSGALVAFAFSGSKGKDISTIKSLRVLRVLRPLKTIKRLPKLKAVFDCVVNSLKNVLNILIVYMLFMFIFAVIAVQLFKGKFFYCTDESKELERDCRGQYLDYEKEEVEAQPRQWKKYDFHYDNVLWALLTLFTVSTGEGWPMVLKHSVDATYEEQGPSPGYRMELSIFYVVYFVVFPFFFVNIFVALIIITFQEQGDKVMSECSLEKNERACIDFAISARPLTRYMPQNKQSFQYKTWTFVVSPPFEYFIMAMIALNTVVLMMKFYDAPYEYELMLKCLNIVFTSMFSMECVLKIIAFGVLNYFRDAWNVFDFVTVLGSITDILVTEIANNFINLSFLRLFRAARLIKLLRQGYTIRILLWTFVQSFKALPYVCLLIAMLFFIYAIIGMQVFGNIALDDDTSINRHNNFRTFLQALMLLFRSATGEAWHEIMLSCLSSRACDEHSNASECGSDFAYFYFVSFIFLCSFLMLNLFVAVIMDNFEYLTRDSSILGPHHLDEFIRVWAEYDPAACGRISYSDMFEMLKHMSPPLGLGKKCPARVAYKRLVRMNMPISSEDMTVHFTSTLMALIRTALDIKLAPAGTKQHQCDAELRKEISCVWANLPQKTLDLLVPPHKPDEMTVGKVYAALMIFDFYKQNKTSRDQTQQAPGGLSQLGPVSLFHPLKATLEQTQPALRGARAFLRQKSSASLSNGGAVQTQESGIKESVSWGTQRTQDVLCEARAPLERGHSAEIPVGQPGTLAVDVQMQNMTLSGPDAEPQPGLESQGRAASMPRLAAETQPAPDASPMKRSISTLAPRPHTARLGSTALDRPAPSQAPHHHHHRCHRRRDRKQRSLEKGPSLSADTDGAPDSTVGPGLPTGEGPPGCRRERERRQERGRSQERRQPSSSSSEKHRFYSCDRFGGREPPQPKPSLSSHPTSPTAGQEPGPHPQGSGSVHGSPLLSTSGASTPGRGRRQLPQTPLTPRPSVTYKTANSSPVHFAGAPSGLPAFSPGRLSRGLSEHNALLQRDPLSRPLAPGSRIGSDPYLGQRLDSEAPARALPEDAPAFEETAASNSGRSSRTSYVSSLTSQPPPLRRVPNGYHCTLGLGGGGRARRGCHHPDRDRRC
T1 sequence (P54289 25-956 partner): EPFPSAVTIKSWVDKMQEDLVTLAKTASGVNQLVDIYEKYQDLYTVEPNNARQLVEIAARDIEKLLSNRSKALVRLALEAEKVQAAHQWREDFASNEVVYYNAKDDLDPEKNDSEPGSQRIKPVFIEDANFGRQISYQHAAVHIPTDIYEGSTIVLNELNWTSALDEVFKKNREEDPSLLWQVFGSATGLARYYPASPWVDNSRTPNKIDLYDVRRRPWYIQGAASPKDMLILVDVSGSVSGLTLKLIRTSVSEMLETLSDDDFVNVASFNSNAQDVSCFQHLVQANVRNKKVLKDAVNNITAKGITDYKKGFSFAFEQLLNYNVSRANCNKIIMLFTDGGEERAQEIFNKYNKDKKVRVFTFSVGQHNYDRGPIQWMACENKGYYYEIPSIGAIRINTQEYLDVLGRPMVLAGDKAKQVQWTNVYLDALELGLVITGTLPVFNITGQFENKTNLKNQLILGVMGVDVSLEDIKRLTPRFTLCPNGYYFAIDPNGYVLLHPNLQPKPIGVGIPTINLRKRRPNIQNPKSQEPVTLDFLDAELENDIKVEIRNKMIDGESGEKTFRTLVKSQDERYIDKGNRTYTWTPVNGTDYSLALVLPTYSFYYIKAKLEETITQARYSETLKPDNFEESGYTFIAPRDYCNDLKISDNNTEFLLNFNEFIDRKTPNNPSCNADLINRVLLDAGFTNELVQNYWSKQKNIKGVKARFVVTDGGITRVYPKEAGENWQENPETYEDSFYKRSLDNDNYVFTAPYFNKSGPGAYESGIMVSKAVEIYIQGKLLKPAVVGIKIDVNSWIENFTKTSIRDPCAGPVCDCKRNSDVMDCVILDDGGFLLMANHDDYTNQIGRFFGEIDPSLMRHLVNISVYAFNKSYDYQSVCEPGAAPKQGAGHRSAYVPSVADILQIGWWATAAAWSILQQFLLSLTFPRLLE
T1 sequence (P54289 957-1103 partner): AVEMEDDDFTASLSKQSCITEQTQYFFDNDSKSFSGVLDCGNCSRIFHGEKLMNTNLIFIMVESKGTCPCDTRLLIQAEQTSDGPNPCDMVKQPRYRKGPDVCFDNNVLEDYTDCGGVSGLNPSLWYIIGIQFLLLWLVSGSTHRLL
T1 sequence (Q02641 whole entry partner): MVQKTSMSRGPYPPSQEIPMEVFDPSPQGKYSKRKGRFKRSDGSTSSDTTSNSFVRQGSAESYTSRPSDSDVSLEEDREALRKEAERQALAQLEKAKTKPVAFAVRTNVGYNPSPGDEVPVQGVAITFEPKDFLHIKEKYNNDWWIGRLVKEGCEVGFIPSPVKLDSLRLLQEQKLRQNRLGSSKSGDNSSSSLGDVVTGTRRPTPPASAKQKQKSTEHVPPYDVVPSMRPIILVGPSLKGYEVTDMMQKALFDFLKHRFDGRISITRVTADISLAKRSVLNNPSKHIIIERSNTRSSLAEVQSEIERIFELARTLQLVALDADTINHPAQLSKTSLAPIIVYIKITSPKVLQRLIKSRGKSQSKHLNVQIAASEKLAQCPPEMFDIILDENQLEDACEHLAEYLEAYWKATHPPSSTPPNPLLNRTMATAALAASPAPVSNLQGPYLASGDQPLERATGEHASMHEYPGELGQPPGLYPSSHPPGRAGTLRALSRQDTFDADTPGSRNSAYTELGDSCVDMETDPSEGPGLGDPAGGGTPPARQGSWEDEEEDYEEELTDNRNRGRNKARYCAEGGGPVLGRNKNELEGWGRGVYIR

For `CC(=O)N1CCN(NC(=O)c2ccc(F)cc2)CC1.O` [test compound, N-(4-Acetyl-1-piperazinyl)-p-fluorobenzamide monohydrate], the “effect on α1B channel current” value ([1]; 100 nM test compound, 0 mV, 200 ms test pulse, Xenopus oocyte) was “increase in the current”, the “influence on the voltage-dependency of α1B channel activation/inactivation” value ([1]; 100 nM test compound, varied depolarization stimulating potential and steady inactive state) was “almost no influence” and the “α1B channel current after return into basal solution and washing” value ([1]; after 100 nM test compound, washed) was “fell to the same level as that before the treatment”. The “potentiation of the current amplitude, channel specificity and concentration range” value ([1]; various concentrations, compared with α1A and α1E channels) was “α1B channel-specific potentiation of the current amplitude in a relatively narrow concentration range”, the “effect on α1A channel current” value [2] was “almost no effect” and the “effect on α1E channel current” value [3] was “almost no effect”.
